Experiments:
[1] = biological target: Nanoluciferase-BRD9 fusion protein (Homo sapiens (Human), UniProt Q9H8M2); test: SYO1 BRD9 NanoLuc degradation assay; format: cell-based; conditions: Table 5A, SYO-1 cells expressing 3×FLAG-NLuc-BRD9, 6 hours; for DC50: read-out: SYO1 BRD9-NanoLuc degradation IC50
Procedure, shortened: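 Degradation was read as loss of nanoluciferase signal (Nano-Glo) after 6 h compound exposure in a stable SYO-1 line carrying 3×FLAG-NLuc-BRD9 (8000 cells/well). Normalised between DMSO (high) and a 1 μM known BRD9 degrader (low).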

[2] = biological target: BRD9 bromodomain (Homo sapiens (Human), UniProt Q9H8M2); test: BRD9 bromodomain TR-FRET competition binding assay; conditions: Table 4; competition with biotinylated ligand, 3 nM Flag-BRD9, 90 minutes
Protocol: Procedure: His-Flag-BRD9 (P133-K239; Swiss Prot Q9H8M2; SEQ ID NO:1 mgsshhhhhhenlyfq/gdykddddkgslevlfqg/[…] […]) was cloned, expressed, purified, and then treated with TEV protease. Cleaved His tag was removed by purification. The binding of a biotinylated small molecule ligand of BRD9 was assessed via the LANCE® TR-FRET platform (PerkinElmer), and the compounds were assayed for inhibitory activity against this interaction.
A mixture of biotinylated-ligand and SureLight™ Allophycocyanin-Streptavidin (APC-SA, PerkinElmer AD0201) in 50 mM HEPES (pH 7.4), 50 mM NaCl, 1 mM TCEP (pH 7), 0.01% (v/v) Tween-20, 0.01% (w/v) bovine serum albumin was added to a white 384-well PerkinElmer Proxiplate Plus plate. DMSO or 3-fold serially diluted compounds were then added to the Proxiplate followed by addition of Flag-BRD9. After a 10-minute incubation at room temperature, Eu-W1024 anti-FLAG (PerkinElmer, AD0273) was added. The final reaction mixture that contained 3.75 nM biotinylated ligand, 3 nM Flag-BRD9, 7.5 nM SureLight™ Allophycocyanin-Streptavidin, and 0.2 nM Eu-W1024 anti-FLAG was incubated at room temperature for 90 minutes.
Results: The plates were then read on a PerkinElmer Envision plate reader to determine the ratio of emission at 665 nm over 615 nm. […]

Chain of Nanoluciferase-BRD9 fusion protein (Q9H8M2 whole entry, the tested form may be a part): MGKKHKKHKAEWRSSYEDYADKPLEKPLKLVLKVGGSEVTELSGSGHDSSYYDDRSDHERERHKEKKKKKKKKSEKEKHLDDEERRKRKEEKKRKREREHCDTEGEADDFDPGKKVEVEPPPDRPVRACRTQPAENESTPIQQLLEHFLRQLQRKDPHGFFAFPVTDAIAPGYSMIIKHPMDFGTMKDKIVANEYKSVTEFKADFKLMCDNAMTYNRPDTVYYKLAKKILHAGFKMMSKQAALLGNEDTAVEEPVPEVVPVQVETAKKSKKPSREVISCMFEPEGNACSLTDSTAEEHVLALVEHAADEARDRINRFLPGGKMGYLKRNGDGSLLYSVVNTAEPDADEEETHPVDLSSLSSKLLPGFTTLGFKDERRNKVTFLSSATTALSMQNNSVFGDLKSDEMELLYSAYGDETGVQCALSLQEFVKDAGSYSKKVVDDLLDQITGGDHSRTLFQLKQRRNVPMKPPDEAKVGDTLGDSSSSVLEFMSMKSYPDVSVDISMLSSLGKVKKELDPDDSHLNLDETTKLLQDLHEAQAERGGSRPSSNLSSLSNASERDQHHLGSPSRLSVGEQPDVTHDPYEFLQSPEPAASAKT
Chain of BRD9 bromodomain (Q9H8M2 133-239): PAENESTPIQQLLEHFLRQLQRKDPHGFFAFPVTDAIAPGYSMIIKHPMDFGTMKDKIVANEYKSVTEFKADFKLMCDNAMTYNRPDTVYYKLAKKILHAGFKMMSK

SMILES | IC50 [1] [nM] | IC50 [2] [nM] | DC50 [1] [nM]
COc1cc(-c2cn(C)c(=O)c3cnccc23)cc(OC)c1CN1CC(S(=O)(=O)NCCCCCNc2ccc3c(c2)C(=O)N(C2CCC(=O)NC2=O)C3=O)C1 (stereo not shown) [Compound D23, 1-[[2,6-dimethoxy-4-(2-methyl-1-oxo-1,2-dihydro-2,7-naphthyridin-4-yl)phenyl]methyl]-N-(5-[[2-(2,6-dioxopiperidin-3-yl)-1,3-dioxo-2,3-dihydro-1H-isoindol-5-yl]amino]pentyl) azetidine-3-sulfonamide formic acid] | < 10 | < 10 | –
COc1cc(-c2cn(C)c(=O)c3cnccc23)cc(OC)c1CN1CC[C@H]1C(=O)NCCN(C)CCNc1cccc2c1C(=O)N(C1CCC(=O)NC1=O)C2=O (stereo partly drawn) [Compound D25, (2S)-1-[[2,6-dimethoxy-4-(2-methyl-1-oxo-1,2-dihydro-2,7-naphthyridin-4-yl)phenyl]methyl]-N-[2-[(2-[[2-(2,6-dioxopiperidin-3-yl)-1,3-dioxo-2,3-dihydro-1H-isoindol-4-yl]amino]ethyl)(methyl)amino]ethyl]azetidine-2-carboxamide] | – | < 10 | 100 to 1000
COc1cc(-c2cn(C)c(=O)c3cnccc23)cc(OC)c1CN1CC[C@H]1C(=O)NCCN(C)CCNC(=O)COc1ccc2c(c1)C(=O)N(C1CCC(=O)NC1=O)C2=O (stereo partly drawn) [Compound D26, N-[2-[(2-[[(2S)-1-[[2,6-dimethoxy-4-(2-methyl-1-oxo-1,2-dihydro-2,7-naphthyridin-4-yl)phenyl]methyl]azetidin-2-yl]formamido]ethyl)(methyl)amino]ethyl]-2-[[2-(2,6-dioxopiperidin-3-yl)-1,3-dioxo-2,3-dihydro-1H-isoindol-5-yl]oxy]acetamide] | > 1000 | 10 to 100 | –
COc1cc(-c2cn(C)c(=O)c3cnccc23)cc(OC)c1CN1CC[C@H]1CN(C)Cc1cccc2c1C(=O)N(C1CCC(=O)NC1=O)C2=O (stereo partly drawn) [Compound D27, 4-(((((S)-1-(2,6-dimethoxy-4-(2-methyl-1-oxo-1,2-dihydro-2,7-naphthyridin-4-yl)benzyl)azetidin-2-yl)methyl)(methyl)amino)methyl)-2-(2,6-dioxopiperidin-3-yl)isoindoline-1,3-dione] | – | < 10 | 10 to 100
COc1cc(-c2cn(C)c(=O)c3cnccc23)cc(OC)c1CN1CC(C(=O)NCCS(=O)(=O)CCNc2cccc3c2C(=O)N(C2CCC(=O)NC2=O)C3=O)C1 (stereo not shown) [Compound D30, 1-(2,6-dimethoxy-4-(2-methyl-1-oxo-1,2-dihydro-2,7-naphthyridin-4-yl)benzyl)-N-(2-((2-((2-(2,6-dioxopiperidin-3-yl)-1,3-dioxoisoindolin-4-yl)amino)ethyl)sulfonyl)ethyl)azetidine-3-carboxamide] | – | < 10 | 10 to 100
COc1cc(-c2cn(C)c(=O)c3cnccc23)cc(OC)c1CNCCCN1CC(Oc2ccc3c(c2)C(=O)N(C2CCC(=O)NC2=O)C3=O)C1 (stereo not shown) [Compound D31, 5-((1-(3-((2,6-dimethoxy-4-(2-methyl-1-oxo-1,2-dihydro-2,7-naphthyridin-4-yl)benzyl)amino)propyl)azetidin-3-yl)oxy)-2-(2,6-dioxopiperidin-3-yl)isoindoline-1,3-dione formic acid] | – | < 10 | 10 to 100
COc1cc(-c2cn(C)c(=O)c3cnccc23)cc(OC)c1CN1CC2(C1)CN(C(=O)CCCOc1cccc3c1C(=O)N(C1CCC(=O)NC1=O)C3=O)C2 (stereo not shown) [Compound D32, 4-(4-(6-(2,6-dimethoxy-4-(2-methyl-1-oxo-1,2-dihydro-2,7-naphthyridin-4-yl)benzyl)-2,6-diazaspiro[3.3]heptan-2-yl)-4-oxobutoxy)-2-(2,6-dioxopiperidin-3-yl)isoindoline-1,3-dione] | – | < 10 | 10 to 100
COc1cc(-c2cn(C)c(=O)c3cnccc23)cc(OC)c1CN1CCN(C(=O)CCCOc2cccc3c2C(=O)N(C2CCC(=O)NC2=O)C3=O)CC1 (stereo not shown) [Compound D33, 4-(4-(4-(2,6-dimethoxy-4-(2-methyl-1-oxo-1,2-dihydro-2,7-naphthyridin-4-yl)benzyl)piperazin-1-yl)-4-oxobutoxy)-2-(2,6-dioxopiperidin-3-yl)isoindoline-1,3-dione] | < 10 | < 10 | –
COc1cc(-c2cn(C)c(=O)c3cnccc23)cc(OC)c1CN1CC2(C1)CN(C(=O)CCCCOc1cccc3c1C(=O)N(C1CCC(=O)NC1=O)C3=O)C2 (stereo not shown) [Compound D34, 4-((5-(6-(2,6-dimethoxy-4-(2-methyl-1-oxo-1,2-dihydro-2,7-naphthyridin-4-yl)benzyl)-2,6-diazaspiro[3.3]heptan-2-yl)-5-oxopentyl)oxy)-2-(2,6-dioxopiperidin-3-yl)isoindoline-1,3-dione] | < 10 | < 10 | –
COc1cc(-c2cn(C)c(=O)c3cnccc23)cc(OC)c1CN1CC2(C1)CN(C(=O)COc1cccc3c1C(=O)N(C1CCC(=O)NC1=O)C3=O)C2 (stereo not shown) [Compound D36, 4-(2-(6-(2,6-dimethoxy-4-(2-methyl-1-oxo-1,2-dihydro-2,7-naphthyridin-4-yl)benzyl)-2,6-diazaspiro[3.3]heptan-2-yl)-2-oxoethoxy)-2-(2,6-dioxopiperidin-3-yl)isoindoline-1,3-dione] | – | < 10 | 100 to 1000
COc1cc(-c2cn(C)c(=O)c3cnccc23)cc(OC)c1CN1CCN(C(=O)COc2cccc3c2C(=O)N(C2CCC(=O)NC2=O)C3=O)CC1 (stereo not shown) [Compound D37, 4-(2-(4-(2,6-dimethoxy-4-(2-methyl-1-oxo-1,2-dihydro-2,7-naphthyridin-4-yl)benzyl)piperazin-1-yl)-2-oxoethoxy)-2-(2,6-dioxopiperidin-3-yl)isoindoline-1,3-dione formic acid] | < 10 | < 10 | –
COc1cc(-c2cn(C)c(=O)c3cnccc23)cc(OC)c1CN1CC(S(=O)(=O)NCCOCCOCCNc2cccc3c2C(=O)N(C2CCC(=O)NC2=O)C3=O)C1 (stereo not shown) [Compound D38, 1-[[2,6-dimethoxy-4-(2-methyl-1-oxo-2,7-naphthyridin-4-yl)phenyl]methyl]-N-[2-[2-(2-[[2-(2,6-dioxopiperidin-3-yl)-1,3-dioxoisoindol-4-yl]amino]ethoxy)ethoxy]ethyl]azetidine-3-sulfonamide formic acid] | < 10 | < 10 | –
COc1cc(-c2cn(C)c(=O)c3cnccc23)cc(OC)c1CN1CCC2(CC1)CN(C(=O)CCCOc1cccc3c1C(=O)N(C1CCC(=O)NC1=O)C3=O)CCO2 (stereo not shown) [Compound D39, 4-[4-(9-[[2,6-dimethoxy-4-(2-methyl-1-oxo-2,7-naphthyridin-4-yl)phenyl]methyl]-1-oxa-4,9-diazaspiro[5.5]undecan-4-yl)-4-oxobutoxy]-2-(2,6-dioxopiperidin-3-yl)isoindole-1,3-dione] | < 10 | < 10 | –
COc1cc(-c2cn(C)c(=O)c3cnccc23)cc(OC)c1CN1CCC2(CC1)CN(C(=O)CCCCOc1cccc3c1C(=O)N(C1CCC(=O)NC1=O)C3=O)CCO2 (stereo not shown) [Compound D40, 4-[[5-(9-[[2,6-dimethoxy-4-(2-methyl-1-oxo-2,7-naphthyridin-4-yl)phenyl]methyl]-1-oxa-4,9-diazaspiro[5.5]undecan-4-yl)-5-oxopentyl]oxy]-2-(2,6-dioxopiperidin-3-yl)isoindole-1,3-dione formic acid] | < 10 | < 10 | –
